Legend:
[1] = target: T1, recombinant human STIM1 and Orai1 (HEK-293 cells) (Homo sapiens, UniProt Q96D31); test: Fluorescence-based assay of store-operated calcium entry in Orai1/STIM1 stable cells; format: cell-based; set-up: key to Orai1/STIM1 (IC50, μmol): A < 0.6 μmol; 0.6 μmol ≦ B ≦ 1.2 μmol; C > 1.2 μmol; — = no fit; conditions: for IC50: FLIPR fluo-4, read-out: Orai1/STIM1 (IC50, μmol); for Orai1/STIM1 (IC50, μmol): FLIPR fluo-4
T1 construct: expressed in transfected cells; host or cells: HEK-293 cells stably expressing both proteins
Experimental: A. Fluorescence-Based Assay of Store-Operated Calcium Entry in Orai1/STIM1 Stable Cells.
Cells stably expressing recombinant human STIM1 and Orai1 are generated by transfecting a human Orai1 expression plasmid (pcDNA3.1-Orai1-cmyc) into HEK-293 cells stably overexpressing human STIM1 (Roos et al. 2005 JCB 169(3): 435-445). Colonies of cells stably expressing both STIM1 and Orai1 proteins are selected and then subcloned by limiting dilution. Cells were cultured at 37° C./6% CO2 in complete medium with 10% FBS and appropriate selection markers.
The day prior to performing the assay Orai1/STIM1 stable cells are plated in 50 μL of complete medium at 90-95% confluence in a 384 well plate. Cells are grown at 37° C./6% CO2 overnight. On the day of the assay, 1.5 μM fluo-4-AM (Invitrogen) in complete medium is added to the cells, which are then incubated for 1 hour at RT. Cells are washed once in Ca^2+-free HBSS (Hank's buffered saline solution) and 35 μl of Ca^2+-free HBSS is added to each well. Test compounds are added to wells in a 10 μL Ca^2+-free HBSS solution, prepared at 4.5× the desired final concentration, and incubated for 30 minutes at RT. The initial baseline fluorescence signal is then measured with a FLIPR^384 (Molecular Devices) plate reader. Calcium entry is initiated by adding 5 μl of 10× CaCl2 (10 mM) in HBSS, and changes in cellular fluorescence are measured with the FLIPR^384 plate reader. In each well, the magnitude of the fluorescence signal as a result of calcium entry into the cell is determined by calculating the difference between the peak fluorescence signal measured after calcium addition and the initial baseline fluorescence signal (designated Peak-Basal). IC50 values are typically calculated as the concentration that inhibited 50% of the Peak-Basal signal (Table A).

[2] = test system: store-operated calcium entry in RBL-2H3 cells; test: Fluorescence-based assay of store-operated calcium entry in RBL-2H3 cells; format: cell-based; conditions: Rattus norvegicus, thapsigargin, FLIPR Fluo-4, read-out: RBL-2H3 (IC50, μmol)
Experimental: B. Fluorescence-Based Assay of Store-Operated Calcium Entry in RBL-2H3 Cells.
RBL-2H3 cells are obtained from ATCC and maintained in complete medium with 10% FBS at 37° C./6% CO2.
The day prior to performing the assay, RBL-2H3 cells are plated in 50 μL of complete medium in a 384 well plate. Cells are grown at 37° C./6% CO2 overnight and grow to 50-60% confluence by the next day. On the assay day, 1.5 μM Fluo-4-AM dye (Invitrogen) in complete medium is added and incubated for 1 hour at RT. Cells are washed twice in Ca^2+-free HBSS buffer and 35 μL Ca^2+-free HBSS buffer is added to each well. 10 μL of a test compound prepared in a Ca^2+-free HBSS solution at 4.5× of the desired concentration is added to a well and incubated for 5 minutes at RT. 10 μL of thapsigargin prepared in a Ca^2+-free HBSS solution at 5.5× of the desired concentration (5.5 uM) is added to each well and incubated for an additional 25 minutes. The initial baseline fluorescence signal is measured with a FLIPR^384 (Molecular Devices) plate reader. 5 μL of 12× calcium in HBSS (12 mM) is added and changes in cellular fluorescence are measured with the FLIPR^384 plate reader. In each well, the change in the fluorescent signal as a function of time due to calcium entry into the cell is determined by calculating the difference between the fluorescent signal measured 7 seconds after calcium addition and the initial baseline fluorescence signal at time zero (t=0). This parameter is designated Upslope. The IC50 value is calculated as the concentration at which 50% of the Upslope is inhibited.

T1 sequence (Q96D31 whole entry): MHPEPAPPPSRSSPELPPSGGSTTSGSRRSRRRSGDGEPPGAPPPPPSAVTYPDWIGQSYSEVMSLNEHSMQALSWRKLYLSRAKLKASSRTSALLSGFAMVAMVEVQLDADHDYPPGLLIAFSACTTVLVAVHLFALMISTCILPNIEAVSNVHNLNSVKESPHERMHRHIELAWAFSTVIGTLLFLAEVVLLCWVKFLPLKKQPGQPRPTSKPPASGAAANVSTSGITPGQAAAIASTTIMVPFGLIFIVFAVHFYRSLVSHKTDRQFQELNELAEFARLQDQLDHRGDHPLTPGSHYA

IC50 [1] | IC50 [2] | Orai1/STIM1 (IC50, μmol) [1] | SMILES
< 600 nM | < 600 nM |  | Cc1nocc1C(=O)Nc1ccc(-c2cc3c(cc2Cl)OC(F)(F)O3)cn1 [Example 18, N-(5-(6-chloro-2,2-difluorobenzo[d][1,3]dioxol-5-yl)pyridin-2-yl)-3-methylisoxazole-4-carboxamide]
< 600 nM | < 600 nM |  | Cc1cnoc1C(=O)Nc1ccc(-c2cc3c(cc2Cl)OC(F)(F)O3)cn1 [Example 20, N-(5-(6-chloro-2,2-difluorobenzo[d][1,3]dioxol-5-yl)pyridin-2-yl)-4-methylisoxazole-5-carboxamide]
 | < 600 nM | — | Cn1nc(C(F)(F)F)c(Cl)c1C(=O)Nc1cnc(-c2cc3c(cc2Cl)OC(F)(F)O3)cn1 [Example 24, 4-chloro-N-(5-(6-chloro-2,2-difluorobenzo[d][1,3]dioxol-5-yl)pyrazin-2-yl)-1-methyl-3-(trifluoromethyl)-1H-pyrazole-5-carboxamide]
600 to 1200 nM | < 600 nM |  | Cc1onc(C(=O)Nc2cnc(-c3cc4c(cc3Cl)OC(F)(F)O4)cn2)c1C [Example 25, N-(5-(6-chloro-2,2-difluorobenzo[d][1,3]dioxol-5-yl)pyrazin-2-yl)-4,5-dimethylisoxazole-3-carboxamide]
600 to 1200 nM | > 1200 nM |  | Cc1cc(C(=O)Nc2cnc(-c3cc4c(cc3Cl)OC(F)(F)O4)cn2)n(C)n1 [Example 27, N-(5-(6-chloro-2,2-difluorobenzo[d][1,3]dioxol-5-yl)pyrazin-2-yl)-1,3-dimethyl-1H-pyrazole-5-carboxamide]
< 600 nM | < 600 nM |  | Cn1ncc(Cl)c1C(=O)Nc1cnc(-c2cc3c(cc2Cl)OC(F)(F)O3)cn1 [Example 29, 4-chloro-N-(5-(6-chloro-2,2-difluorobenzo[d][1,3]dioxol-5-yl)pyrazin-2-yl)-1-methyl-1H-pyrazole-5-carboxamide]
600 to 1200 nM | < 600 nM |  | Cc1noc(C)c1C(=O)Nc1cnc(-c2cc3c(cc2Cl)OC(F)(F)O3)cn1 [Example 31, N-(5-(6-chloro-2,2-difluorobenzo[d][1,3]dioxol-5-yl)pyrazin-2-yl)-3,5-dimethylisoxazole-4-carboxamide]
< 600 nM | < 600 nM |  | CCn1nccc1C(=O)Nc1cnc(-c2cc3c(cc2Cl)OC(F)(F)O3)cn1 [Example 32, N-(5-(6-chloro-2,2-difluorobenzo[d][1,3]dioxol-5-yl)pyrazin-2-yl)-1-ethyl-1H-pyrazole-5-carboxamide]
 | < 600 nM | — | O=C(Nc1cnc(-c2cc3c(cc2Cl)OC(F)(F)O3)cn1)c1ccnn1C(F)F [Example 33, N-(5-(6-chloro-2,2-difluorobenzo[d][1,3]dioxol-5-yl)pyrazin-2-yl)-1-(difluoromethyl)-1H-pyrazole-5-carboxamide]
600 to 1200 nM | < 600 nM |  | Cc1cc2c(cc1-c1ccc(NC(=O)c3cccn3C)nc1)OC(F)(F)O2 [Example 34, N-(5-(2,2-difluoro-6-methylbenzo[d][1,3]dioxol-5-yl)pyridin-2-yl)-1-methyl-1H-pyrrole-2-carboxamide]
< 600 nM | < 600 nM |  | Cc1cc2c(cc1-c1cnc(NC(=O)c3c(Cl)cnn3C)cn1)OC(F)(F)O2 [Example 35, 4-chloro-N-(5-(2,2-difluoro-6-methylbenzo[d][1,3]dioxol-5-yl)pyrazin-2-yl)-1-methyl-1H-pyrazole-5-carboxamide]
600 to 1200 nM | < 600 nM |  | Cc1cc2c(cc1-c1cnc(NC(=O)c3c(Cl)c(C(F)(F)F)nn3C)cn1)OC(F)(F)O2 [Example 37, 4-chloro-N-(5-(2,2-difluoro-6-methylbenzo[d][1,3]dioxol-5-yl)pyrazin-2-yl)-1-methyl-3-(trifluoromethyl)-1H-pyrazole-5-carboxamide]
> 1200 nM | < 600 nM |  | Cc1cc2c(cc1-c1cnc(NC(=O)c3c(C)noc3C)cn1)OC(F)(F)O2 [Example 38, N-(5-(2,2-difluoro-6-methylbenzo[d][1,3]dioxol-5-yl)pyrazin-2-yl)-3,5-dimethylisoxazole-4-carboxamide]
> 1200 nM | > 1200 nM |  | Cn1nc(C(F)(F)F)cc1-c1cnc(NC(=O)c2c(Cl)cnn2C)cn1 [Example 39, 4-chloro-1-methyl-N-(5-(1-methyl-3-(trifluoromethyl)-1H-pyrazol-5-yl)pyrazin-2-yl)-1H-pyrazole-5-carboxamide]
> 1200 nM | > 1200 nM |  | Cc1nn(C)c(C(=O)Nc2cnc(-c3cc(C(F)(F)F)nn3C)cn2)c1Cl [Example 40, 4-chloro-1,3-dimethyl-N-(5-(1-methyl-3-(trifluoromethyl)-1H-pyrazol-5-yl)pyrazin-2-yl)-1H-pyrazole-5-carboxamide]
> 1200 nM | > 1200 nM |  | Cn1nc(C(F)(F)F)cc1-c1cnc(NC(=O)c2c(Cl)c(C(F)(F)F)nn2C)cn1 [Example 41, 4-chloro-1-methyl-N-(5-(1-methyl-3-(trifluoromethyl)-1H-pyrazol-5-yl)pyrazin-2-yl)-3-(trifluoromethyl)-1H-pyrazole-5-carboxamide]
> 1200 nM | > 1200 nM |  | Cc1noc(C)c1C(=O)Nc1cnc(-c2cc(C(F)(F)F)nn2C)cn1 [Example 42, 3,5-dimethyl-N-(5-(1-methyl-3-(trifluoromethyl)-1H-pyrazol-5-yl)pyrazin-2-yl)isoxazole-4-carboxamide]
> 1200 nM | 600 to 1200 nM |  | O=C(Nc1ncc(Oc2ccccc2C(F)(F)F)s1)c1c(F)cccc1F [Example 43, (2,6-difluorophenyl)-N-{5-[2-(trifluoromethyl)phenoxy](1,3-thiazol-2-yl)}carboxamide]

From US9856240B2, “Compounds that modulate intracellular calcium” (CalciMedica, Inc., priority 2011, dated 2018)
